Laboratory results reported in the supplement of paper PMC13380429.

Columns and labels:
Conditions in all cases: 72 h
Caco-2 [1] = test: cell viability relative to DMSO; higher = less toxic
Calu-3 [2] = test: as above
HepG2 [3] = test: as above
U2OS [4] = test: as above
Vero E6 [5] = test: as above
Caco-2 [6] = test: relative viability EC50 (midpoint between 100% and the lowest measured viability); higher = less toxic
HepG2 [7] = test: as above
U2OS [8] = test: as above
Caco-2 [9] = test: drug sensitivity score (DSS) for viability; higher = more toxic; extreme values may be limits of the assay
Calu-3 [10] = test: as above
HepG2 [11] = test: as above
U2OS [12] = test: as above
Vero E6 [13] = test: as above
Vero E6 [14] = test: relative viability EC50 (midpoint between 100% and the lowest measured viability); higher = less toxic

## COc1ccc(-n2c(SCCCN3C(=O)c4cccc5cccc(c45)C3=O)nnc2-c2ccncc2)cc1 [WIKI4]
Caco-2 [1]; 1 nM
  cell viability: 90.5%
Caco-2 [1]; 10 nM
  cell viability: 109%
Caco-2 [1]; 100 nM
  cell viability: 96%
Caco-2 [1]; 1000 nM
  cell viability: 87%
Caco-2 [1]; 10000 nM
  cell viability: 95.6%
Calu-3 [2]; 1 nM
  cell viability: 96.2%
Calu-3 [2]; 10 nM
  cell viability: 103%
Calu-3 [2]; 100 nM
  cell viability: 92.8%
Calu-3 [2]; 1000 nM
  cell viability: 75%
Calu-3 [2]; 10000 nM
  cell viability: 71.3%
HepG2 [3]; 1 nM
  cell viability: 96.3%
HepG2 [3]; 10 nM
  cell viability: 97.6%
HepG2 [3]; 100 nM
  cell viability: 93.4%
HepG2 [3]; 1000 nM
  cell viability: 107%
HepG2 [3]; 10000 nM
  cell viability: 100%
U2OS [4]; 1 nM
  cell viability: 100%
U2OS [4]; 10 nM
  cell viability: 109%
U2OS [4]; 100 nM
  cell viability: 98.6%
U2OS [4]; 1000 nM
  cell viability: 95.7%
U2OS [4]; 10000 nM
  cell viability: 87.3%
Vero E6 [5]; 1 nM
  cell viability: 97.8%
Vero E6 [5]; 10 nM
  cell viability: 101%
Vero E6 [5]; 100 nM
  cell viability: 97.9%
Vero E6 [5]; 1000 nM
  cell viability: 91.8%
Vero E6 [5]; 10000 nM
  cell viability: 66.8%
Caco-2 [6]
  relative viability EC50: > 10 µM
HepG2 [7]
  relative viability EC50: > 10 µM
U2OS [8]
  relative viability EC50: > 10 µM
Caco-2 [9]
  drug sensitivity score: 1.1
Calu-3 [10]
  drug sensitivity score: 4.7
HepG2 [11]
  drug sensitivity score: 0
U2OS [12]
  drug sensitivity score: 0.2
Vero E6 [13]
  drug sensitivity score: 2.8

## c1ccc(NCc2ccc(CNc3ccccn3)cc2)nc1 [WZ811]
Caco-2 [1]; 1 nM
  cell viability: 97.9%
Caco-2 [1]; 10 nM
  cell viability: 105%
Caco-2 [1]; 100 nM
  cell viability: 103%
Caco-2 [1]; 1000 nM
  cell viability: 95.5%
Caco-2 [1]; 10000 nM
  cell viability: 100%
HepG2 [3]; 1 nM
  cell viability: 98.6%
HepG2 [3]; 10 nM
  cell viability: 101%
HepG2 [3]; 100 nM
  cell viability: 98.7%
HepG2 [3]; 1000 nM
  cell viability: 106%
HepG2 [3]; 10000 nM
  cell viability: 111%
U2OS [4]; 1 nM
  cell viability: 96.8%
U2OS [4]; 10 nM
  cell viability: 96.1%
U2OS [4]; 100 nM
  cell viability: 99.8%
U2OS [4]; 1000 nM
  cell viability: 96.7%
U2OS [4]; 10000 nM
  cell viability: 97.9%
Vero E6 [5]; 1 nM
  cell viability: 93.5%
Vero E6 [5]; 10 nM
  cell viability: 95.5%
Vero E6 [5]; 100 nM
  cell viability: 94.2%
Vero E6 [5]; 1000 nM
  cell viability: 101%
Vero E6 [5]; 10000 nM
  cell viability: 103%
Caco-2 [6]
  relative viability EC50: > 10 µM
HepG2 [7]
  relative viability EC50: > 10 µM
U2OS [8]
  relative viability EC50: > 10 µM
Vero E6 [14]
  relative viability EC50: > 10 µM
Caco-2 [9]
  drug sensitivity score: 0
HepG2 [11]
  drug sensitivity score: 0
U2OS [12]
  drug sensitivity score: 0
Vero E6 [13]
  drug sensitivity score: 0

## CCNC(=O)[C@@H]1CCCN1C(=O)[C@H](CCCNC(=N)N)NC(=O)[C@H](CC(C)C)NC(=O)[C@@H](C)NC(=O)[C@H](Cc1ccc(O)cc1)NC(=O)[C@H](CO)NC(=O)[C@H](Cc1c[nH]c2ccccc12)NC(=O)[C@H](Cc1cnc[nH]1)NC(=O)[C@@H]1CCC(=O)N1 [alarelin]
Caco-2 [1]; 1 nM
  cell viability: 116%
Caco-2 [1]; 10 nM
  cell viability: 100%
Caco-2 [1]; 100 nM
  cell viability: 86.3%
Caco-2 [1]; 1000 nM
  cell viability: 118%
Caco-2 [1]; 10000 nM
  cell viability: 102%
HepG2 [3]; 1 nM
  cell viability: 97.8%
HepG2 [3]; 10 nM
  cell viability: 103%
HepG2 [3]; 100 nM
  cell viability: 101%
HepG2 [3]; 1000 nM
  cell viability: 92%
HepG2 [3]; 10000 nM
  cell viability: 93.7%
Vero E6 [5]; 1 nM
  cell viability: 109%
Vero E6 [5]; 10 nM
  cell viability: 106%
Vero E6 [5]; 100 nM
  cell viability: 104%
Vero E6 [5]; 1000 nM
  cell viability: 96.9%
Vero E6 [5]; 10000 nM
  cell viability: 102%
Caco-2 [6]
  relative viability EC50: > 10 µM
HepG2 [7]
  relative viability EC50: > 10 µM
Vero E6 [14]
  relative viability EC50: > 10 µM
Caco-2 [9]
  drug sensitivity score: 0
HepG2 [11]
  drug sensitivity score: 0
Vero E6 [13]
  drug sensitivity score: 0

## CC1(C)S[C@@H]2[C@H](NC(=O)[C@H](N)c3ccccc3)C(=O)N2[C@H]1C(=O)O [ampicillin]
Calu-3 [10]
  drug sensitivity score: 0
HepG2 [11]
  drug sensitivity score: 0
U2OS [12]
  drug sensitivity score: 0
Vero E6 [13]
  drug sensitivity score: 0

## CC(=O)OCC(=O)[C@@]1(O)[C@@H](C)C[C@H]2[C@@H]3CCC4=CC(=O)C=C[C@]4(C)[C@@]3(F)[C@@H](O)C[C@@]21C [betamethasone-acetate]
Calu-3 [10]
  drug sensitivity score: 0
HepG2 [11]
  drug sensitivity score: 0
U2OS [12]
  drug sensitivity score: 0
Vero E6 [13]
  drug sensitivity score: 0

## Cc1nc2ccccc2n1Cc1ccc(Cl)cc1 [chlormidazole]
Caco-2 [1]; 1 nM
  cell viability: 103%
Caco-2 [1]; 10 nM
  cell viability: 101%
Caco-2 [1]; 100 nM
  cell viability: 109%
Caco-2 [1]; 1000 nM
  cell viability: 83.1%
Caco-2 [1]; 10000 nM
  cell viability: 77.8%
HepG2 [3]; 1 nM
  cell viability: 92.3%
HepG2 [3]; 10 nM
  cell viability: 95.4%
HepG2 [3]; 100 nM
  cell viability: 109%
HepG2 [3]; 1000 nM
  cell viability: 92.1%
HepG2 [3]; 10000 nM
  cell viability: 25.1%
U2OS [4]; 1 nM
  cell viability: 99.2%
U2OS [4]; 10 nM
  cell viability: 95.9%
U2OS [4]; 100 nM
  cell viability: 98.8%
U2OS [4]; 1000 nM
  cell viability: 96.9%
U2OS [4]; 10000 nM
  cell viability: 95.8%
Vero E6 [5]; 1 nM
  cell viability: 96.7%
Vero E6 [5]; 10 nM
  cell viability: 107%
Vero E6 [5]; 100 nM
  cell viability: 104%
Vero E6 [5]; 1000 nM
  cell viability: 107%
Vero E6 [5]; 10000 nM
  cell viability: 85.9%
Caco-2 [6]
  relative viability EC50: > 10 µM
HepG2 [7]
  relative viability EC50: 2.3 µM
U2OS [8]
  relative viability EC50: > 10 µM
Vero E6 [14]
  relative viability EC50: > 10 µM
Caco-2 [9]
  drug sensitivity score: 2.4
HepG2 [11]
  drug sensitivity score: 5.4
U2OS [12]
  drug sensitivity score: 0
Vero E6 [13]
  drug sensitivity score: 0.1

## Nc1nc(Cl)nc2c1ncn2[C@@H]1O[C@H](CO)[C@@H](O)[C@@H]1F [clofarabine]
Caco-2 [1]; 1 nM
  cell viability: 90.2%
Caco-2 [1]; 10 nM
  cell viability: 102%
Caco-2 [1]; 100 nM
  cell viability: 88.8%
Caco-2 [1]; 1000 nM
  cell viability: 85.9%
Caco-2 [1]; 10000 nM
  cell viability: 71.5%
Calu-3 [2]; 1 nM
  cell viability: 91.4%
Calu-3 [2]; 10 nM
  cell viability: 106%
Calu-3 [2]; 100 nM
  cell viability: 96.2%
Calu-3 [2]; 1000 nM
  cell viability: 64.8%
Calu-3 [2]; 10000 nM
  cell viability: 54.6%
HepG2 [3]; 1 nM
  cell viability: 94.1%
HepG2 [3]; 10 nM
  cell viability: 100%
HepG2 [3]; 100 nM
  cell viability: 89.2%
HepG2 [3]; 1000 nM
  cell viability: 33.3%
HepG2 [3]; 10000 nM
  cell viability: 39.3%
U2OS [4]; 1 nM
  cell viability: 99.9%
U2OS [4]; 10 nM
  cell viability: 101%
U2OS [4]; 100 nM
  cell viability: 105%
U2OS [4]; 1000 nM
  cell viability: 79.7%
U2OS [4]; 10000 nM
  cell viability: 65.5%
Vero E6 [5]; 1 nM
  cell viability: 96.2%
Vero E6 [5]; 10 nM
  cell viability: 91.5%
Vero E6 [5]; 100 nM
  cell viability: 96.6%
Vero E6 [5]; 1000 nM
  cell viability: 87.8%
Vero E6 [5]; 10000 nM
  cell viability: 55.9%
HepG2 [7]
  relative viability EC50: 0.192 µM
Caco-2 [9]
  drug sensitivity score: 2.8
Calu-3 [10]
  drug sensitivity score: 6.8
HepG2 [11]
  drug sensitivity score: 14.1
U2OS [12]
  drug sensitivity score: 4
Vero E6 [13]
  drug sensitivity score: 4

## COc1cc2c(c(OC)c1OC)-c1ccc(OC)c(=O)cc1[C@@H](NC(C)=O)CC2 [colchicine]
Caco-2 [1]; 1 nM
  cell viability: 97.2%
Caco-2 [1]; 10 nM
  cell viability: 103%
Caco-2 [1]; 100 nM
  cell viability: 45.8%
Caco-2 [1]; 1000 nM
  cell viability: 46.1%
Caco-2 [1]; 10000 nM
  cell viability: 41.1%
HepG2 [3]; 1 nM
  cell viability: 104%
HepG2 [3]; 10 nM
  cell viability: 91.2%
HepG2 [3]; 100 nM
  cell viability: 38%
HepG2 [3]; 1000 nM
  cell viability: 34.8%
HepG2 [3]; 10000 nM
  cell viability: 39.7%
U2OS [4]; 1 nM
  cell viability: 104%
U2OS [4]; 10 nM
  cell viability: 103%
U2OS [4]; 100 nM
  cell viability: 25.3%
U2OS [4]; 1000 nM
  cell viability: 20%
U2OS [4]; 10000 nM
  cell viability: 19.2%
Vero E6 [5]; 1 nM
  cell viability: 101%
Vero E6 [5]; 10 nM
  cell viability: 101%
Vero E6 [5]; 100 nM
  cell viability: 96.9%
Vero E6 [5]; 1000 nM
  cell viability: 31.1%
Vero E6 [5]; 10000 nM
  cell viability: 28.5%
Caco-2 [6]
  relative viability EC50: 0.0419 µM
HepG2 [7]
  relative viability EC50: 0.0241 µM
U2OS [8]
  relative viability EC50: 0.0407 µM
Vero E6 [14]
  relative viability EC50: 0.308 µM
Caco-2 [9]
  drug sensitivity score: 17.5
HepG2 [11]
  drug sensitivity score: 21.2
U2OS [12]
  drug sensitivity score: 23.9
Vero E6 [13]
  drug sensitivity score: 13.2

## C/C=C(/C)C(=O)O[C@H]1[C@H](OC(C)=O)[C@@]2(CO)C(CC1(C)C)C1=CCC3[C@@]4(C)CCC(O[C@@H]5O[C@H](C(=O)O)[C@@H](O[C@@H]6O[C@H](CO)[C@@H](O)[C@H](O)[C@H]6O)[C@H](O)[C@H]5O[C@@H]5O[C@H](CO)[C@@H](O)[C@H](O)[C@H]5O)[C@](C)(CO)C4CC[C@@]3(C)[C@]1(C)C[C@H]2O.C/C=C(\C)C(=O)O[C@H]1[C@H](OC(C)=O)[C@@]2(CO)C(CC1(C)C)C1=CCC3[C@@]4(C)CCC(O[C@@H]5O[C@H](C(=O)O)[C@@H](O[C@@H]6O[C@H](CO)[C@@H](O)[C@H](O)[C@H]6O)[C@H](O)[C@H]5O[C@@H]5O[C@H](CO)[C@@H](O)[C@H](O)[C@H]5O)[C@](C)(CO)C4CC[C@@]3(C)[C@]1(C)C[C@H]2O (stereo not given in full) [escin]
Calu-3 [10]
  drug sensitivity score: 0
HepG2 [11]
  drug sensitivity score: 3.8
U2OS [12]
  drug sensitivity score: 1.5
Vero E6 [13]
  drug sensitivity score: 4.1

## C[C@]12CC[C@@H]3c4ccc(O)cc4CC[C@H]3[C@@H]1CC[C@@H]2O [estradiol]
Calu-3 [10]
  drug sensitivity score: 0
HepG2 [11]
  drug sensitivity score: 0
U2OS [12]
  drug sensitivity score: 0
Vero E6 [13]
  drug sensitivity score: 0
